In patent publication US11840686B2, “Modulation of prekallikrein (PKK) expression” (Ionis Pharmaceuticals, Inc., priority 2013, dated 2023):
Strand notation (5' to 3'): a small letter for the sugar, then the base; units joined by * are phosphorothioate-linked, units joined directly phosphodiester-linked; [ ] holds rarer units or linkages, { } end groups; capitals alone tell only the bases. e = 2'-O-(2-methoxyethyl) (MOE); [5mC] = 5-methylcytosine; d = 2'-deoxy (DNA)

Tests used:
human PKK mRNA [1] = assay: Dose-dependent antisense inhibition of human PKK in HepaRG cells, 0.19-5.00 uM (Example 5); type: cell-based; conditions: HepaRG cells; for percent inhibition of PKK at 0.19 μM / percent inhibition of PKK at 0.56 μM / percent inhibition of PKK at 1.67 μM / percent inhibition of PKK at 5.00 μM: electroporation, approximately 16 hours; for percent inhibition of PKK mRNA, 0.19 μM: 0.19 μM antisense oligonucleotide; for percent inhibition of PKK mRNA, 0.56 μM: 0.56 μM antisense oligonucleotide; for percent inhibition of PKK mRNA, 1.67 μM: 1.67 μM antisense oligonucleotide; for percent inhibition of PKK mRNA, 5.00 μM: 5.00 μM antisense oligonucleotide
Summary of the method: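 PKK mRNA knockdown was measured by real-time PCR (primer probe set RTS3454) about 16 h after electroporating 20,000 HepaRG cells per well with oligonucleotide at four doses from 0.19 to 5.00 μM. Levels were adjusted to RIBOGREEN-measured total RNA, and IC50 values were calculated.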

human PKK mRNA [2] = assay: Antisense inhibition of human PKK mRNA in HepaRG cells, 5,000 nM (Example 2); type: cell-based
Summary of the method: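 qRT-PCR (RTS3454) read-out, RIBOGREEN-normalized; % inhibition vs untreated cells. HepaRG, 20,000 cells/well, electroporation, 5,000 nM ASO, ~24 h.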

[3] = HepaRG cells, electroporation with 5,000 nM antisense oligonucleotide, approximately 24 hours, PKK mRNA by RT-PCR (RTS3454), relative to untreated control cells, Table 6 experiment
[4] = 4 point dose response, Table 36
[5] = 4 point dose response, Table 39
[6] = human PKK mRNA in HepaRG cells, 5-10-5 gapmers, Table 14

547360 (eA*eA*e[5mC]*e[5mC]*eA*dA*dT*dT*dT*d[5mC]*dT*dG*dA*dA*dA*eG*eG*eG*e[5mC]*eA; antisense) [compound 547360]
percent inhibition of PKK at 0.19 μM (human PKK mRNA [1]; Table 37): 8%
percent inhibition of PKK at 0.56 μM (human PKK mRNA [1]; Table 37): 27%
percent inhibition of PKK at 1.67 μM (human PKK mRNA [1]; Table 37): 76%
percent inhibition of PKK at 5.00 μM (human PKK mRNA [1]; Table 37): 76%
IC50 (human PKK mRNA [1]; 4 point dose response, Table 37): 800 nM
% inhibition (human PKK mRNA [2]; [3]): 88%

547298 (antisense eT*eT*eG*eG*eG*dT*dG*dG*dA*dA*dT*dG*dT*dG*d[5mC]*eA*e[5mC]*e[5mC]*eT*e[5mC]) [compound 547298]
percent inhibition of PKK at 0.19 μM (human PKK mRNA [1]; Table 36): 32%
percent inhibition of PKK at 0.56 μM (human PKK mRNA [1]; Table 36): 61%
percent inhibition of PKK at 1.67 μM (human PKK mRNA [1]; Table 36): 74%
percent inhibition of PKK at 5.00 μM (human PKK mRNA [1]; Table 36): 90%
IC50 (human PKK mRNA [1]; [4]): 400 nM
percent inhibition of PKK mRNA, 0.19 μM (human PKK mRNA [1]): 0%
percent inhibition of PKK mRNA, 0.56 μM (human PKK mRNA [1]): 12%
percent inhibition of PKK mRNA, 1.67 μM (human PKK mRNA [1]): 67%
percent inhibition of PKK mRNA, 5.00 μM (human PKK mRNA [1]): 87%
IC50 (human PKK mRNA [1]; 0.19-5.00 μM): 1700 nM
% inhibition (human PKK mRNA [2]; HepaRG cells, electroporation with 5,000 nM antisense oligonucleotide, approximately 24 hours, PKK mRNA by RT-PCR (RTS3454), relative to untreated control cells, Table 5 experiment): 90%

548757 (antisense eA*eG*eT*eA*dT*d[5mC]*dA*d[5mC]*dT*dG*dT*dA*d[5mC]*eT*eA*eG*eT) [compound 548757]
percent inhibition of PKK at 0.19 μM (human PKK mRNA [1]; Table 39): 18%
percent inhibition of PKK at 0.56 μM (human PKK mRNA [1]; Table 39): 49%
percent inhibition of PKK at 1.67 μM (human PKK mRNA [1]; Table 39): 82%
percent inhibition of PKK at 5.00 μM (human PKK mRNA [1]; Table 39): 93%
IC50 (human PKK mRNA [1]; [5]): 600 nM
% inhibition (human PKK mRNA [2]; human PKK mRNA, HepaRG cells, 5,000 nM antisense oligonucleotide, Table 18): 87%

546894 (eT*e[5mC]*eA*e[5mC]*eT*dG*dT*d[5mC]*d[5mC]*dT*dA*dT*dG*dT*d[5mC]*eA*e[5mC]*eT*eG*eT; antisense) [compound 546894]
percent inhibition of PKK at 0.19 μM (human PKK mRNA [1]; Table 36): 15%
percent inhibition of PKK at 0.56 μM (human PKK mRNA [1]; Table 36): 47%
percent inhibition of PKK at 1.67 μM (human PKK mRNA [1]; Table 36): 50%
percent inhibition of PKK at 5.00 μM (human PKK mRNA [1]; Table 36): 93%
IC50 (human PKK mRNA [1]; [4]): 900 nM
% inhibition (human PKK mRNA [2]; human PKK mRNA, HepaRG cells, 5-10-5 motif oligonucleotides targeting SEQ ID NO: 1 and 10): 91%

546208 (antisense e[5mC]*eG*eT*eT*eA*d[5mC]*dT*d[5mC]*dA*dG*d[5mC]*dA*d[5mC]*d[5mC]*dT*eT*eT*eA*eT*eA) [compound 546208]
percent inhibition of PKK at 0.19 μM (human PKK mRNA [1]; Table 35): 16%
percent inhibition of PKK at 0.56 μM (human PKK mRNA [1]; Table 35): 45%
percent inhibition of PKK at 1.67 μM (human PKK mRNA [1]; Table 35): 79%
percent inhibition of PKK at 5.00 μM (human PKK mRNA [1]; Table 35): 91%
IC50 (human PKK mRNA [1]; 4 point dose response, Table 35): 700 nM
percent inhibition of PKK mRNA, 0.19 μM (human PKK mRNA [1]): 5%
percent inhibition of PKK mRNA, 0.56 μM (human PKK mRNA [1]): 33%
percent inhibition of PKK mRNA, 1.67 μM (human PKK mRNA [1]): 70%
percent inhibition of PKK mRNA, 5.00 μM (human PKK mRNA [1]): 97%
IC50 (human PKK mRNA [1]; 0.19-5.00 μM): 900 nM
% inhibition (human PKK mRNA [2]; [3]): 92%

546872 (e[5mC]*eA*e[5mC]*eT*eG*dT*dA*d[5mC]*d[5mC]*dT*dA*dT*dA*dA*d[5mC]*eT*e[5mC]*eT*eA*eA; antisense) [compound 546872]
percent inhibition of PKK at 0.19 μM (human PKK mRNA [1]; Table 39): 32%
percent inhibition of PKK at 0.56 μM (human PKK mRNA [1]; Table 39): 33%
percent inhibition of PKK at 1.67 μM (human PKK mRNA [1]; Table 39): 82%
percent inhibition of PKK at 5.00 μM (human PKK mRNA [1]; Table 39): 94%
IC50 (human PKK mRNA [1]; [5]): 400 nM
percent inhibition of PKK mRNA, 0.19 μM (human PKK mRNA [1]): 42%
percent inhibition of PKK mRNA, 0.56 μM (human PKK mRNA [1]): 13%
percent inhibition of PKK mRNA, 1.67 μM (human PKK mRNA [1]): 59%
percent inhibition of PKK mRNA, 5.00 μM (human PKK mRNA [1]): 99%
IC50 (human PKK mRNA [1]; 0.19-5.00 μM): 1400 nM
% inhibition (human PKK mRNA [2]; [6]): 87%

547584 (eG*eT*eA*eT*e[5mC]*dA*d[5mC]*dT*dG*dT*d[5mC]*d[5mC]*dT*dA*dT*eA*eT*e[5mC]*eA*e[5mC]; antisense) [compound 547584]
percent inhibition of PKK at 0.19 μM (human PKK mRNA [1]; Table 38): 26%
percent inhibition of PKK at 0.56 μM (human PKK mRNA [1]; Table 38): 34%
percent inhibition of PKK at 1.67 μM (human PKK mRNA [1]; Table 38): 76%
percent inhibition of PKK at 5.00 μM (human PKK mRNA [1]; Table 38): 86%
IC50 (human PKK mRNA [1]; 4 point dose response, Table 38): 700 nM
percent inhibition of PKK mRNA, 0.19 μM (human PKK mRNA [1]): 0%
percent inhibition of PKK mRNA, 0.56 μM (human PKK mRNA [1]): 21%
percent inhibition of PKK mRNA, 1.67 μM (human PKK mRNA [1]): 64%
percent inhibition of PKK mRNA, 5.00 μM (human PKK mRNA [1]): 92%
IC50 (human PKK mRNA [1]; 0.19-5.00 μM): 1300 nM
% inhibition (human PKK mRNA [2]; [6]): 85%
